In patent US20230116972A1, “CD38 MODULATORS AND METHODS OF USE THEREOF” (Cytokinetics, Inc., priority 2021, published 2023):

Columns and labels:
[1] = molecular target: T1, mouse CD38 (Mus musculus, UniProt P56528); assay: mouse recombinant CD38 enzyme assay (hydrolysis of NAD+); format: biochemical; settings: read-out: mCD38 BioChem IC50
T1 sequence (P56528 1-304): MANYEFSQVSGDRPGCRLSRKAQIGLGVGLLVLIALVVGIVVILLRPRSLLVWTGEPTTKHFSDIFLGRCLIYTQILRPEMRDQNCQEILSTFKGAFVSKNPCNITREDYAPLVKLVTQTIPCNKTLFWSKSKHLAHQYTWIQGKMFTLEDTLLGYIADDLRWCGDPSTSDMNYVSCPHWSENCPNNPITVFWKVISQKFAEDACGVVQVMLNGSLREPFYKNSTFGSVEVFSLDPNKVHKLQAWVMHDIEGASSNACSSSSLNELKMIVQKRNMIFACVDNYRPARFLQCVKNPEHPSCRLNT
Protocol: (§1) Compounds described herein were assayed for their ability to inhibit the hydrolysis of NAD+ by the protein CD38. The human and mouse recombinant enzyme assays measure the inhibition of the enzyme activity by compounds using recombinant enzymes and substrates in a buffered cell-free system. The assay conditions closely mimic cellular environments. Dose responses were measured using an assay to detect the hydrolysis of NAD+. All experiments were performed in the 384-well format. […] Enzyme reactions were initiated with the addition of 10 μL of a solution containing NAD+ substrate. Subsequent detection of remaining NAD+ was determined by first converting NAD+ to NADH using alcohol dehydrogenase, then using the resulting NADH to reduce resazurine to the fluorescent product resorufin. […] Following an incubation of 60 min at ambient temperature, 10 μL of 120 mM ethanol+20 U/ml alcohol dehydrogenase+30 mM semicarbazide+0.03 mM CD38 inhibitor in 50 mM HEPES, pH 7.5, 0.2 mg/ml BSA, was added and incubated at ambient temperature for 15 min. Then 10 μl 0.32 mM NaOH was added to stop the ADH reaction (plates incubated at ambient temperature for 15 min), followed by 30 μL of 0.05 mM resazurine+1000 mU/ml Diaphorase in 200 mM Tris-HCl, pH 7.7 for 15 min at ambient temperature. The plates were read for fluorescence (Excitation/Emission=540 nm/590 nm) using an EnVision plate reader. […] Note that, in Table 4, the “Compound No” corresponds to the compound numbers in Table 1.

[2] = molecular target: T2, human CD38 (Homo sapiens, UniProt P28907); assay: human recombinant CD38 enzyme assay (hydrolysis of NAD+); format: biochemical; settings: human recombinant CD38, 0.4 nM enzyme, 62.5 μM NAD+; read-out: hCD38 BioChem IC50
T2 sequence (P28907 1-300): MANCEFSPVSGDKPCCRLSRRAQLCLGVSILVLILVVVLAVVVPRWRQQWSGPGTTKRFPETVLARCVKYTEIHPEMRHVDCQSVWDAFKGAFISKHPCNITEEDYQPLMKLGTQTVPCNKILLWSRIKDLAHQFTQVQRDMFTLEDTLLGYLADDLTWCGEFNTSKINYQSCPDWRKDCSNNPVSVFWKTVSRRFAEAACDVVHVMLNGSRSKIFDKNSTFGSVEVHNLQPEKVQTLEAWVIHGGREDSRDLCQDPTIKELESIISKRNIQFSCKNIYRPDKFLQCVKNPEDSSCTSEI
Protocol: as §1

Row | Compound | IC50 [1] [nM] | IC50 [2] [nM]
1 | O=C(NC1CCC(F)(F)CC1)c1cc(C2CCC2)nc(-n2ccnc2)n1 [Compound 185, 6-cyclobutyl-N-(4,4-difluorocyclohexyl)-2-(1H-imidazol-1-yl)pyrimidine-4-carboxamide] | 14 | 30
2 | O=C(Nc1ccc(C(F)F)nc1)c1cc(C2CCC2)nc(-n2ccnc2)n1 [Compound 186, 6-cyclobutyl-N-(6-(difluoromethyl)pyridin-3-yl)-2-(1H-imidazol-1-yl)pyrimidine-4-carboxamide] | 5 | 10
3 | CC(C)(C)c1cc(-n2ccnc2)nc(C(=O)Nc2ccc(C(F)F)nc2)n1 [Compound 188, 4-(tert-butyl)-N-(6-(difluoromethyl)pyridin-3-yl)-6-(1H-imidazol-1-yl)pyrimidine-2-carboxamide] | 661 | 1970
4 | Cn1cncc1-c1cc(C(C)(C)C)nc(C(=O)Nc2ccc(C(F)(F)F)nc2)n1 [Compound 190, 4-(tert-butyl)-6-(1-methyl-1H-imidazol-5-yl)-N-(6-(trifluoromethyl)pyridin-3-yl)pyrimidine-2-carboxamide] | 427 | 502
5 | O=C(N[C@H]1C[C@@H](c2ccccc2)C1)c1nccc(-n2ccnc2)n1 [Compound 212, 4-(1H-imidazol-1-yl)-N-((1s,3s)-3-phenylcyclobutyl)pyrimidine-2-carboxamide] | 105 | 833
6 | COCCO[C@H]1C[C@H](NC(=O)c2nccc(-n3ccnc3)n2)C1 [Compound 223, 4-(1H-imidazol-1-yl)-N-((1r,3r)-3-(2-methoxyethoxy)cyclobutyl)pyrimidine-2-carboxamide] | 459 | 1630
7 | Cn1cncc1-c1ccnc(C(=O)N[C@H]2CC[C@@](O)(c3ccccc3)CC2)n1 [Compound 253, N-((1r,4r)-4-hydroxy-4-phenylcyclohexyl)-4-(1-methyl-1H-imidazol-5-yl)pyrimidine-2-carboxamide] | 124 | 1700
8 | O=C(NC1CN(c2ccccc2)C1)c1nccc(-n2ccnc2)n1 [Compound 262, 4-(1H-imidazol-1-yl)-N-(1-phenylazetidin-3-yl)pyrimidine-2-carboxamide] | 232 | 1840
9 | Cn1cncc1-c1ccnc(C(=O)N[C@H]2C[C@@H](c3ccnc(C(F)(F)F)c3)C2)n1 [Compound 266, 4-(1-methyl-1H-imidazol-5-yl)-N-((1s,3s)-3-(2-(trifluoromethyl)pyridin-4-yl)cyclobutyl)pyrimidine-2-carboxamide] | 327 | 708
10 | O=C(N[C@H]1C[C@@H](c2ccnc(C(F)(F)F)c2)C1)c1nccc(-n2ccnc2)n1 [Compound 271, 4-(1H-imidazol-1-yl)-N-((1s,3s)-3-(2-(trifluoromethyl)pyridin-4-yl)cyclobutyl)pyrimidine-2-carboxamide] | 415 | 2150
11 | O=C(N[C@H]1C[C@@H](c2ccc(C(F)(F)F)nc2)C1)c1nccc(-n2ccnc2)n1 [Compound 272, 4-(1H-imidazol-1-yl)-N-((1s,3s)-3-(6-(trifluoromethyl)pyridin-3-yl)cyclobutyl)pyrimidine-2-carboxamide] | 224 | 1340
12 | O=C(NC1CC2(COC2)C1)c1nccc(-n2ccnc2)n1 [Compound 290, 4-(1H-imidazol-1-yl)-N-(2-oxaspiro[3.3]heptan-6-yl)pyrimidine-2-carboxamide] | 191 | 1220
13 | CCO[C@H]1C[C@H](NC(=O)c2nccc(-n3ccnc3)n2)C1 [Compound 301, N-((1r,3r)-3-ethoxycyclobutyl)-4-(1H-imidazol-1-yl)pyrimidine-2-carboxamide] | 199 | 621
14 | O=C(N[C@H]1CC[C@H](O)C1)c1nccc(-n2ccnc2)n1 [Compound 304, N-((1S,3S)-3-hydroxycyclopentyl)-4-(1H-imidazol-1-yl)pyrimidine-2-carboxamide] | 244 | 1270
15 | Cn1cncc1-c1ccnc(C(=O)NC2CC3(COC3)C2)n1 [Compound 306, 4-(1-methyl-1H-imidazol-5-yl)-N-(2-oxaspiro[3.3]heptan-6-yl)pyrimidine-2-carboxamide] | 81.7 | 357
16 | Cn1cncc1-c1ccnc(C(=O)N[C@H]2C[C@](O)(c3ccccc3)C2)n1 [Compound 310, N-((1s,3s)-3-hydroxy-3-phenylcyclobutyl)-4-(1-methyl-1H-imidazol-5-yl)pyrimidine-2-carboxamide] | 105 | 354
17 | CO[C@H]1C[C@H](NC(=O)c2nccc(-n3ccnc3)n2)C1 [Compound 313, 4-(1H-imidazol-1-yl)-N-((1r,3r)-3-methoxycyclobutyl)pyrimidine-2-carboxamide] | 198 | 761

Second part, the molecule after the results:

Row | IC50 [1] [nM] | IC50 [2] [nM] | Compound
18 | 531 | 961 | COc1cc(-n2ccnc2)nc(C(=O)N[C@H]2CC[C@H](OC)CC2)n1 [Compound 208, 4-(1H-imidazol-1-yl)-6-methoxy-N-((1r,4r)-4-methoxycyclohexyl)pyrimidine-2-carboxamide]
19 | 203 | 933 | COCCO[C@H]1C[C@H](NC(=O)c2nccc(-c3cncn3C)n2)C1 [Compound 222, N-((1r,3r)-3-(2-methoxyethoxy)cyclobutyl)-4-(1-methyl-1H-imidazol-5-yl)pyrimidine-2-carboxamide]
20 | 67.9 | 490 | Cn1cncc1-c1ccnc(C(=O)NC2CCC(C)(C)OC2)n1 (centres unmarked) [Compound 278, N-(6,6-dimethyltetrahydro-2H-pyran-3-yl)-4-(1-methyl-1H-imidazol-5-yl)pyrimidine-2-carboxamide]
21 | 90.8 | 414 | CO[C@H]1C[C@H](NC(=O)c2nccc(-c3cncn3C)n2)C1 [Compound 297, N-((1r,3r)-3-methoxycyclobutyl)-4-(1-methyl-1H-imidazol-5-yl)pyrimidine-2-carboxamide]
22 | 166 | 319 | CO[C@H]1CC[C@H](NC(=O)c2nc(-c3cncn3C)cnc2C)CC1 [Compound 298, N-((1r,4r)-4-methoxycyclohexyl)-3-methyl-6-(1-methyl-1H-imidazol-5-yl)pyrazine-2-carboxamide]
23 | 118 | 369 | Cn1cncc1-c1ccnc(C(=O)N[C@@H]2CC[C@@H](O)C2)n1 [Compound 302, N-((1R,3R)-3-hydroxycyclopentyl)-4-(1-methyl-1H-imidazol-5-yl)pyrimidine-2-carboxamide]
24 | 62.4 | 485 | Cn1cncc1-c1ccnc(C(=O)N[C@H]2CC[C@H](O)C2)n1 [Compound 305, N-((1S,3S)-3-hydroxycyclopentyl)-4-(1-methyl-1H-imidazol-5-yl)pyrimidine-2-carboxamide]
25 | 41.7 | 79.1 | Cn1cncc1-c1ccnc(C(=O)N[C@H]2CC[C@H](OC(F)(F)F)CC2)n1 [Compound 317, 4-(1-methyl-1H-imidazol-5-yl)-N-((1r,4r)-4-(trifluoromethoxy)cyclohexyl)pyrimidine-2-carboxamide]
26 | 218 | 949 | CC(C)O[C@H]1C[C@H](NC(=O)c2nccc(-c3cncn3C)n2)C1 [Compound 320, N-((1r,3r)-3-isopropoxycyclobutyl)-4-(1-methyl-1H-imidazol-5-yl)pyrimidine-2-carboxamide]
27 | 32.2 | 133 | Cc1cnc(-c2cncn2C)nc1C(=O)N[C@H]1CC[C@H](O)CC1 [Compound 321, 5-Methyl-2-(3-methylimidazol-4-yl)-N-[(1r,4r)-4-hydroxycyclohexyl]pyrimidine-4-carboxamide]
28 | 6.9 | 41.8 | Cn1cncc1-c1nc(C(=O)N[C@H]2CC[C@H](OC(F)(F)F)CC2)cc(C2CCC(F)(F)CC2)n1 [Compound 322, 6-(4,4-difluorocyclohexyl)-2-(1-methyl-1H-imidazol-5-yl)-N-((1r,4r)-4-(trifluoromethoxy)cyclohexyl)pyrimidine-4-carboxamide]
